Measurements published in patent US20240067632A1, “WEE1 Degrading Compounds and Uses Thereof” (Bristol-Myers Squibb Company, priority 2022, published 2024).
Like-named read-outs stand apart in the source and are kept apart here.

Columns and labels:
WEE1 = target: T1, WEE1 (Homo sapiens, UniProt P30291+Q96SW2); experiment: WEE1-ePL degradation assay (LentiX-WEE1-ePL-GSPT1-ND cells, InCELL Hunter luminescence, 4 h); format: cell-based; conditions: 293T-LentiX WEE1-ePL cells; for DC50: read-out: 293T-LentiX WEE1-ePL Degradation 4 hr (EC50)
T1 construct: C-terminal ePL-tagged (DiscoverX, Fremont, CA) full-length WEE1 expression construct; expressed in transfected cells; host or cells: LentiX-HEK293T (Invitrogen), lentiviral transduction; co-expressing GSPT1-GN (G576N, lacking the first 158 amino acids)
Outline: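 HEK293T cells stably expressing C-terminal ePL-tagged full-length WEE1, 2500 cells/well, treated 4 h at 37° C with a 10-point 3-fold series from 1 or 10 uM. Remaining WEE1-ePL read by InCELL Hunter luminescence after 30 min. EC50 came from a four-parameter logistic fit, with Ymax set from DMSO control.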

MKN45 cells = experiment: MKN45 cell proliferation assay (Cell-Titer-Glo, 120 h); format: cell-based; conditions: for EC50: Homo sapiens, MKN-45, 120 h, Cell-Titer-Glo, read-out: MKN45 Cell Prolif. 120 hr (EC50); for MKN45 Cell Prolif. 120 hr (Ymin-Obs): minimal percent of DMSO control observed in the concentrations tested
Outline: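 Growth inhibition was read as blank-corrected Cell-Titer-Glo luminescence expressed as percent DMSO control after 120 h at 37 C, 400 cells/well. Compounds tested in triplicate as 10-point half-log series from 1 or 10 uM, 0.1% DMSO; four-parameter fit gave EC50, and lowest observed percent control was reported as Ymin-obs.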

[1] = lower limit of the fit (0 = luciferase inhibitor, Ymax = DMSO control)
[2] = lower limit of the fit (Ymin=0 luciferase inhibitor, Ymax DMSO control)

Row | SMILES | 293T-LentiX WEE1-ePL Degradation 4 hr (Ymin) (WEE1; [1]) | DC50 (WEE1) [nM] | EC50 (MKN45 cells; growth inhibition) [nM] | MKN45 Cell Prolif. 120 hr (Ymin-Obs) (MKN45 cells) | 293T-LentiX WEE1-ePL Degradation 4 hr (Ymin) (WEE1; [2]) | EC50 (MKN45 cells) [nM]
1 | CNC(=O)c1ccc2cc(CN3CC[C@H](Oc4ccc5c(c4)CN(C4CCC(=O)NC4=O)C5=O)C3)ccc2n1 (stereo partly drawn) [6-{[(3S)-3-{[2-(2,6-dioxopiperidin-3-yl)-1-oxo-2,3-dihydro-1H-isoindol-5-yl]oxy}pyrrolidin-1-yl]methyl}-N-methylquinoline-2-carboxamide] | 26.91 | 4.27 | 11.7 | 9.36 |  | 
2 | COC[C@@H]1CCC[C@H](c2ccc3cc(CN4CC[C@H](Oc5ccc6c(c5)CN(C5CCC(=O)NC5=O)C6=O)C4)ccc3n2)C1 (stereo partly drawn) [3-(5-{[(3S)-1-({2-[(1S,3R)-3-(methoxymethyl)cyclohexyl]quinolin-6-yl}methyl)pyrrolidin-3-yl]oxy}-1-oxo-2,3-dihydro-1H-isoindol-2-yl)piperidine-2,6-dione] |  | 1.63 |  | 10.23 | 27.12 | 1.73
3 | O=C1CCC(N2Cc3cc(O[C@@H]4CN(Cc5ccc6nc([C@@H]7CCOC7)ccc6c5)CC4(F)F)ccc3C2=O)C(=O)N1 (stereo partly drawn) [3-(5-{[(3R)-4,4-difluoro-1-({2-[(3S)-oxolan-3-yl]quinolin-6-yl}methyl)pyrrolidin-3-yl]oxy}-1-oxo-2,3-dihydro-1H-isoindol-2-yl)piperidine-2,6-dione] |  | 8.39 |  | 9.159 | 30.61 | 9.93
4 | O=C1CCC(N2Cc3cc(O[C@H]4CCN(Cc5ccc6nc(C7(O)CCC7)ccc6c5)C4)ccc3C2=O)C(=O)N1 (stereo partly drawn) [3-(5-{[(3S)-1-{[2-(1-hydroxycyclobutyl)quinolin-6-yl]methyl}pyrrolidin-3-yl]oxy}-1-oxo-2,3-dihydro-1H-isoindol-2-yl)piperidine-2,6-dione] | 29.5 | 2.58 | 2.4 | 7.94 |  | 
5 | COC[C@H]1CCC[C@H](c2ccc3cc(CN4CC[C@H](Oc5ccc6c(c5)CN(C5CCC(=O)NC5=O)C6=O)C4)ccc3n2)C1 (stereo partly drawn) [3-(5-{[(3S)-1-({2-[(1S,3S)-3-(methoxymethyl)cyclohexyl]quinolin-6-yl}methyl)pyrrolidin-3-yl]oxy}-1-oxo-2,3-dihydro-1H-isoindol-2-yl)piperidine-2,6-dione] |  | 7.61 |  | 11.34 | 32.49 | 5.71
6 | O=C1CCC(N2Cc3cc(O[C@H]4CCN(Cc5ccc6nc(-n7ccccc7=O)ccc6c5)C4)ccc3C2=O)C(=O)N1 (stereo partly drawn) [3-(1-oxo-5-{[(3S)-1-{[2-(2-oxo-1,2-dihydropyridin-1-yl)quinolin-6-yl]methyl}pyrrolidin-3-yl]oxy}-2,3-dihydro-1H-isoindol-2-yl)piperidine-2,6-dione] | 35 | 2.27 | 1.93 | 8.805 |  | 
7 | O=C1CCC(N2Cc3cc(O[C@H]4CCN(Cc5cc6cc([C@@H]7CCOC7)ccc6cn5)C4)ccc3C2=O)C(=O)N1 (stereo partly drawn) [3-(1-oxo-5-{[(3S)-1-({6-[(3S)-oxolan-3-yl]isoquinolin-3-yl}methyl)pyrrolidin-3-yl]oxy}-2,3-dihydro-1H-isoindol-2-yl)piperidine-2,6-dione] | 28 | 5.38 | 12.9 | 5.87 |  | 
8 | O=C1CCC(N2Cc3cc(O[C@H]4CCN(Cc5ccc6nc(N7C[C@H]8CC[C@@H](C7)O8)ccc6c5)C4)ccc3C2=O)C(=O)N1 (stereo partly drawn) [3-(5-{[(3S)-1-({2-[(1R,5S)-8-oxa-3-azabicyclo[3.2.1]octan-3-yl]quinolin-6-yl}methyl)pyrrolidin-3-yl]oxy}-1-oxo-2,3-dihydro-1H-isoindol-2-yl)piperidine-2,6-dione] | 37 | 6.5 | 6.42 | 11.085 |  | 
9 | CO[C@H]1CCC[C@H](c2ccc3cc(CN4CC[C@H](Oc5ccc6c(c5)CN(C5CCC(=O)NC5=O)C6=O)C4)ccc3n2)C1 (stereo partly drawn) [3-(5-{[(3S)-1-({2-[(1S,3S)-3-methoxycyclohexyl]quinolin-6-yl}methyl)pyrrolidin-3-yl]oxy}-1-oxo-2,3-dihydro-1H-isoindol-2-yl)piperidine-2,6-dione] | 30.5 | 3.58 | 2.01 | 9.255 |  | 
10 | O=C1CC[C@H](N2Cc3cc(O[C@H]4CCN(Cc5ccc6ncccc6c5)C4)ccc3C2=O)C(=O)N1 [(3S)-3-(1-oxo-5-{[(3S)-1-[(quinolin-6-yl)methyl]pyrrolidin-3-yl]oxy}-2,3-dihydro-1H-isoindol-2-yl)piperidine-2,6-dione] | 26.52 | 7.42 | 31.4 | 12.265 |  | 
